Literature values as cited in patent US10683273B2, “Compounds as DNA probes, methods and applications thereof” (JAWAHARLAL NEHRU CENTRE FOR ADVANCED SCIENTIFIC RESEARCH, priority 2015, dated 2020).

Legend:
[1] = tested on: DNA; conditions: literature values (footnotes a, b); cited from earlier work
[2] = literature values (footnotes a, b); cited from earlier work

| Structure (SMILES) | Stokes shift in presence of DNA [1] | Stokes shift in absence of DNA [2] |
| --- | --- | --- |
| CN1/C(=C/c2cc[n+](CCC[N+](C)(C)CCC[N+](C)(C)CCC[n+]3ccc(/C=C4\Sc5ccccc5N4C)c4ccccc43)c3ccccc23)Sc2ccccc21.[I-].[I-].[I-].[I-] [TOTO-1] | 19 nm | 149 nm |
| CN(C)CCCN(CCCN(C)C)c1cc(C=C2Sc3ccccc3N2C)c2ccccc2[n+]1-c1ccccc1 [Picogreen] | 21 nm | 30 nm |
| CN1/C(=C/c2cc[n+](CCC[N+](C)(C)CCC[N+](C)(C)CCC[n+]3ccc(/C=C4/Oc5ccccc5N4C)c4ccccc43)c3ccccc23)Oc2ccccc21.[I-].[I-].[I-].[I-] [YOYO-1] | 20 nm | 106 nm |
| CCCN(CCCN(C)C)c1cc(/C=C2/Sc3ccccc3N2C)c2ccccc2[n+]1-c1ccccc1 [SYBR Green 1] | 26 nm | 36 nm |
| CN1C(=Cc2cc[n+](C)c3ccccc23)Oc2ccccc21 [Oxazole yellow (YO), Oxazole yellow] | 19 nm | 100 nm |
| CN1C(=Cc2cc[n+](C)c3ccccc23)Sc2ccccc21 [Thiazole orange (TO), Thiazole orange] | 18 nm | 139 nm |
